Measurements taken from patent US11957139B2, “Compositions for improving nitrogen utilization in a ruminant” (Evonik Operations GmbH, priority 2016, dated 2024).
Like-named read-outs stand apart in the source and are kept apart here.

Assays:
Holstein heifers [1] = system: Holstein heifers
Procedure: The objective of this experiment was to evaluate the effects of ruminal versus abomasal infusion of ammonia (an equivalent source of NPN) on food intake in ruminants.
Feed intake was calculated according to the following formula: Feed intake=[amount of feed provided at the beginning of the day]−[amount of feed left intact (i.e. not eaten) after a period of 24 hours]). Results

lactating heifers = assay: Milk production after ruminal versus abomasal infusion (Example 4); type: in vivo, Holstein heifers; details: infused in the abomasum compared to equivalent amount in the rumen
Description: The experimental procedure and animal treatments is the same as described above for example 1, except that the Holstein heifers were lactating heifers.

Holstein heifers [2] = assay: Somatic growth after ruminal versus abomasal infusion (Example 3); type: in vivo; details: infused in the abomasum compared to equivalent amount in the rumen; at least 2 months
Description: Heifers are individually weighed on the first day of each experimental period (i.e. day 1) and on the last day of the experimental period (i.e., after at least 2 months, such as after 6 months). […] An increase in body weight indicates an increase in somatic growth while a decrease or no change in body weight indicates a decrease in somatic growth or unchanged somatic growth, respectively.

Holstein heifers [3] = details: 150 g urea equivalent infused into rumen; 0-12 h post-infusion; FIG. 18
Description: Three non-lactating, non-pregnant Holstein heifers were used for the experiment. The Holstein heifers were on average 48±0.5 months of age and weighed on average 800 kg. Each heifer was rumen-cannulated. The experimental design was a 3×3 Latin Square, involving 3 treatments, 3 periods and 3 animals. Experimental unit is the combination animal×period, totalizing 9 experimental units.
The experiment consisted of 3 treatment regimens (i.e. treatment groups 1, 2, and 3). Specifically, each treatment group differed with respect to the NPN composition they received.
Heifers were housed in a tie-stall barn with individual water and feed troughs, rubber mattresses, and wood shaving bedding. The tie-stall was cleaned and the wood shaving replaced daily. Heifers were fed low quality hay ad libitum. Each experimental period last 4 days in which test products were infused in the rumen (day one) and samples were taken on the following 48 h.
Rumen fluid samples were taken at 0, 0.5, 1, 2, 3, 6, and 12 h post-infusion through a tube adapted to the rumen cannula.

Holstein heifers [4] = assay: Apparent fiber digestibility after ruminal versus abomasal infusion of urea; type: in vivo
Description: The experiment included a four-week adaptation period to a basal diet (in this case mimicking a winter tropical diet (winter tropical climate being an Aw climate) in addition to the distinct experimental periods (i.e. one experimental period per treatment regimen listed in Table 1), each lasting fourteen days.
Each heifer was rumen-cannulated. A tube was inserted into the abomasum via the rumen cannula to bypass the rumen.
The experiment consisted of two treatment groups subjected to different treatment regimens.
After the adaptation period, the heifers were exposed to the treatment regimens (i.e. consecutively, starting with treatment 1 and followed by treatment 2) as described in Table 1 (2 weeks per treatment regimen).
Heifers were fed low quality hay twice a day (08 h 30 and 16 h 30). The heifers were allowed to eat ad libitum during both feeding events.
An amount of one kilogram of compound feed (referred to as the ‘compound feed trial’), as a meal, was given in the morning (08 h 30) through the cannula (see Table 2). The details over the compositions of hay and compound feed (‘compound feed adaptation’ and ‘compound feed trial’) are presented in Table 3 below. Animals had free access to water troughs throughout the day.
All heifers were simultaneously infused in the rumen and the abomasum. This experimental design allowed each heifer to receive every treatment (consecutively), which provided 4 replicates per treatment. The two experimental periods described in Table 1 lasted 14 days each. For each individual treatment regimen, the fourteen-day period consisted of 8 days of adaptation, 4 days for sampling, and 2 days of rest without any infusions.
Whenever the treatment solution was infused in the rumen, a placebo solution (e.g. saline solution) was infused in the abomasum and whenever the treatment solution was infused in the abomasum, a placebo solution (e.g. water) was infused in the rumen. In the present case, it was necessary to infuse a saline solution in the abomasum (as opposed to water) in order to avoid problems related to osmotic pressure due to the small volume of the abomasum. This situation requires the use of a solution, which has an osmotic pressure similar to that of blood. A physiological saline solution fulfils this requirement. […] Therefore, infusion of water is suitable for the rumen.
Each heifer was equipped with two infusion lines via the cannula bung. Specifically, the first line delivered the solution straight into the rumen; the second line passed through the rumen into the omasum, using a rubber flange as anchor, delivering the pumped solution into the abomasum (Gressley et al. (2006)).
Infusate levels and infusion rates were checked 3 times per day (at 09:00 h;16:00 h and 21:00 h). Whenever necessary, manifold tubes with different inner diameter were replaced to adjust rate or level of solution, aiming to reach 10 L (or 5 L during the first two days of the period) infused continually in 24 h. The infusion rate was set at 3.5 mL/min (5 L/d) for the first two days of adaptation in each experimental period and 6.9 mL/min (10 L/d) for the remaining days.
Samples of compound feed and hay were taken from day 09 to 12 of each experimental period. After samples were collected, a portion was used to determine dried matter content (DM) at 60° C. 72 h and the rest was stored at −20° C. in a large bag labelled with the period number and trial code.

Holstein heifers [5] = assay: Nitrogen intake, excretion, digestibility and retention after ruminal infusion of urea sources; type: in vivo
Procedure: Each heifer was rumen-cannulated.
On the first and second day of experimental period, faeces were collected during 48 h. During this period wood shaves were withdrawn from the mattresses. On day 1, before the ruminal infusion of tested articles, a baseline sample was taken directly from the rectum of each animal. From the moment of ruminal incubation, total faeces were collected for 48 hours. During collection days, faeces were well homogenized, weighted, and a sub-sample (≈200 g) taken on the following hours of the day: 0800 (only for day 2) 1100, 1500 and 1900.

[6] = ammonia infused into abomasum over 24 h (AA)
[7] = ammonia infused into rumen over 24 h (AR)
[8] = urea 127 g/day infused into the abomasum over 24 h (UA)
[9] = urea 127 g/day infused into the rumen once a day (UR)
[10] = during the 48 hours following N infusion into rumen

## N [ammonia]
Holstein heifers [1]; [6]
  Feed intake, Crude Protein (Feed): 0.581 kg/day
  Feed intake, Crude Protein (Total): 0.952 kg/day
  Feed intake, Hay Dry Matter: 6.09 kg/day
  Feed intake, Neutral detergent fiber: 4.38 kg/day
  Feed intake, Organic Matter: 6.58 kg/day
  Feed intake, Total Dry Matter: 6.97 kg/day
Holstein heifers [1]; [7]
  Feed intake, Crude Protein (Feed): 0.537 kg/day
  Feed intake, Crude Protein (Total): 0.907 kg/day
  Feed intake, Hay Dry Matter: 5.37 kg/day
  Feed intake, Neutral detergent fiber: 3.87 kg/day
  Feed intake, Organic Matter: 5.90 kg/day
  Feed intake, Total Dry Matter: 6.26 kg/day
Holstein heifers [1]; ammonia into abomasum relative to ammonia in the rumen
  feed intake of hay and total nutrient, in words: increase in feed intake
Lactating heifers
  milk production at the end of the treatment: increased milk production
Holstein heifers [2]
  body weight at the end of the treatment: increased body weight

## urea
Holstein heifers [3]
  ruminal ammonia concentration over time, in words: higher
Lactating heifers
  milk production at the end of the treatment: increased milk production
Holstein heifers [4]; [8]
  Apparent fiber digestibility, Dry matter: 51.36%
  Apparent fiber digestibility, Neutral detergent fiber: 48.27%
  Apparent fiber digestibility, Organic matter: 52.79%
Holstein heifers [4]; [9]
  Apparent fiber digestibility, Dry matter: 49.35%
  Apparent fiber digestibility, Neutral detergent fiber: 43.75%
  Apparent fiber digestibility, Organic matter: 50.18%
Holstein heifers [4]; urea in the abomasum compared to urea in the rumen
  apparent fiber digestibility, in words: increased
Holstein heifers [2]
  body weight at the end of the treatment: increased body weight
Holstein heifers [5]; ((N intake − N excreted)/N intake) * 100
  N digestibility: 61.81%
Holstein heifers [5]; Faecal N excretion + Urinary N excretion, 48 h
  Total N excretion: 228.22 g
Holstein heifers [5]; [10]
  N excretion faeces: 119.92 g
  N excretion urine: 108.30 g
Holstein heifers [5]; total N intake in 48 h including N infusion into rumen
  N Intake: 307.58 g
